Data as given in patent US7459277B2, “Mammalian T1R3 sweet taste receptors” (The Regents of the University of California, priority 2003, dated 2008).
Residues, ends and D or L forms follow the SMILES beside them.

Key:
mouse T1R3 GPCR = molecular target: T1, mouse T1R3 GPCR (Mus musculus, UniProt Q925D8); test: Ca-imaging of HEK-293 cells expressing T1R3 and Ggust-25; format: cell-based; conditions: for T1R3 and Ggust-25 dependent responses: >300 mM, three independent stable lines
T1 construct: expressed in transfected cells
T1 sequence (Q925D8 21-858): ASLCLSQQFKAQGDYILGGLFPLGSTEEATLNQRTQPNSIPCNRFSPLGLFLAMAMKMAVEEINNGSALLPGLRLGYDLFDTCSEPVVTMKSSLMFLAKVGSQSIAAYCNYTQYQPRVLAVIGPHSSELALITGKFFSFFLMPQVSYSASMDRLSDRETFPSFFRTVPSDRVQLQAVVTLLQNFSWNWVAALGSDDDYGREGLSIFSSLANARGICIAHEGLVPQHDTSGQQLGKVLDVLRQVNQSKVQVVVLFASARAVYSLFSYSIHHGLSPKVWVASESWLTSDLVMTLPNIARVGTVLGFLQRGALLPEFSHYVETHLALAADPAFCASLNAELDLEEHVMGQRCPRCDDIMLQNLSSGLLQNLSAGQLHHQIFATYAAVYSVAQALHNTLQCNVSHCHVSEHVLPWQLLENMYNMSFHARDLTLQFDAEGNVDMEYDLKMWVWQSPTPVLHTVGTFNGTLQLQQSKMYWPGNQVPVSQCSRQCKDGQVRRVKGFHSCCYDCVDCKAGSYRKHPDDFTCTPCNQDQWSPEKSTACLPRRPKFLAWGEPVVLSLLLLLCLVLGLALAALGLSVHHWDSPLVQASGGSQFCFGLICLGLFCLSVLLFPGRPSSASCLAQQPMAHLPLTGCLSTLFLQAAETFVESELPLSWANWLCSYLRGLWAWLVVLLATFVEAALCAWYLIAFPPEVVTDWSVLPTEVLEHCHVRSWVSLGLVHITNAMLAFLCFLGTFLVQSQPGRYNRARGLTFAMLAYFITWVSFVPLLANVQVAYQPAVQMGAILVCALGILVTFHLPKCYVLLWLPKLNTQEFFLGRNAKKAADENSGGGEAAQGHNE

T1R knockout mice [1] = test: Brief access taste test (lick rate relative to control) in wild-type and T1R knockout mice; format: in vivo, mouse; conditions: for behavioral responses, effect of T1R knockouts: T1R1, T1R2, T1R3 knockout versus wild-type
Text: Two complementary strategies were used to assay the taste responses of the genetically modified mice. First, we recorded tastant-induced action potentials from one of the major nerves innervating taste receptor cells of the tongue (chorda tympani). This physiological assay monitors the activity of the taste system at the periphery, and provides a measure of taste receptor cell function. Second, we examined taste behavior by measuring taste-choices in standard long-term two-bottle intake preference assays, or by direct counting of immediate licking responses in a multi-channel gustometer (Glendinning, J. I. et al., Chem Senses, 27, 461-474 (2002); Zhang, Y. et al., Cell, 112, 293-301 (2003); see Experimental Procedures). This second method relies on very short exposures to tastants (5 s events over a total of 30 min versus 48 hrs for two-bottle preference assays), and therefore has the great advantage of minimizing the impact of other sensory inputs, and post-ingestive and learning effects from the assay.
Taste behavior was assayed using a short term assay that directly measures taste preferences by counting immediate licking responses in a multi-channel gustometer (Davis MS160-Mouse gustometer; DiLog Instruments, Tallahassee, Fla.). Mice were trained and tested as described previously (Zhang, Y. et al., Cell, 112, 293-301 (2003)). Individual mice were placed in the gustometer for 30 minutes, and stimuli were presented in random order for 5 s trials that were initiated by the mouse licking the stimulus spout. […] Data points represent the mean rate that mice licked a tastant relative to their sampling of an appropriate control tastant (ratio defined as lick rate relative to control); lick suppression is defined as 1 minus the lick rate relative to control.

T1R1+3 = conditions: cited from earlier work; for activation of T1R1+3: psychophysically relevant concentrations
T1R knockout mice [2] = test: Chorda tympani nerve recordings in wild-type and T1R knockout mice; format: in vivo, mouse; conditions: for physiological (nerve) responses: T1R3 KO mice, salt effects minimized; for physiological responses, effect of T1R knockouts: T1R1, T1R2, T1R3 knockout versus wild-type; for neural responses (chorda tympani): wild-type, T1R1, T1R2 and T1R3 knockout mice, 100 mM citric acid, 100 mM NaCl, 10 mM PROP
[3] = tested on: T1R2 KO mice expressing a human T1R2 gene; test: Behavioral taste responses of mice expressing a human T1R2 transgene; format: in vivo, mouse; conditions: for behavioral response to human sweet tastants: humanized T1R2 mice (T1R2 KO + hT1R2 transgene), monellin ~10 uM, thaumatin ~5 uM, aspartame 10 mM, glycyrrhizic acid 500 uM, neohesperidin dihydrochalcone 400 uM
humans = conditions: sub-millimolar concentrations; cited from earlier work
rodents = conditions: 100 times higher concentrations than sweet to humans; cited from earlier work
HEK-293 cells = test: Ca-imaging, receptor independent rises in [Ca2+]i; format: cell-based, human; conditions: high concentrations of sugar
Experimental: Modified HEK-293 cells (PEAK^rapid cells; Edge BioSystems, Md.) were grown, transfected with […] and promiscuous G-proteins and assayed for functional responses to tastants by Ca-imaging essentially as described previously (Nelson, G. et al., Cell, 106, 381-390 (2001)). Minor differences in FURA-2 loading and Ca-imaging included using 199(H) Medium (Biosource) containing 0.1% BSA, 100 μM EGTA and 200 μM CaCl2 as assay buffer as well as reducing the time allowed for FURA-AM ester cleavage to 10 minutes. The imaging system was an Olympus IX50 microscope equipped with a 10×/0.5 N.A. fluor objective (Zeiss), the TILL imaging system (TILL Photonics GmbH), and a cooled CCD camera. Acquisition and analysis of fluorescence images used TILL-Vision software. To optimize coupling of […]-responses to changes in [Ca^2+]i, C-terminal residues of human Gα16 (Offermanns, S., and Simon, M. I., J Biol Chem, 270, 15175-15180 (1995)) were replaced with the corresponding residues from Gz (Mody, S. M. et al., Mol Pharmacol, 57, 13-23 (2000)), gustducin (McLaughlin, S. K. et al., Nature, 357, 563-569 (1992)) or Gαi2. […] Cell lines stably expressing T1R3 and Ggust-25 were established using puromycin and Zeocin (Invitrogen) selection. Three independent lines expressing T1R3 and Ggust-25 were used to examine the specificity and dose response of the T1R3 receptor.

T1R2+3 = molecular target: T2, T1R2+3 (Mus musculus, UniProt Q925D8+Q925I4); test: Ca-imaging of HEK-293 cells co-transfected with T1R2 plus T1R3 and Ggust-25; format: cell-based; conditions: control cells expressing T1R2+3
T2 construct: expressed in transfected cells; host or cells: modified HEK-293 cells (PEAKrapid)
T2 sequence (Q925I4 20-843): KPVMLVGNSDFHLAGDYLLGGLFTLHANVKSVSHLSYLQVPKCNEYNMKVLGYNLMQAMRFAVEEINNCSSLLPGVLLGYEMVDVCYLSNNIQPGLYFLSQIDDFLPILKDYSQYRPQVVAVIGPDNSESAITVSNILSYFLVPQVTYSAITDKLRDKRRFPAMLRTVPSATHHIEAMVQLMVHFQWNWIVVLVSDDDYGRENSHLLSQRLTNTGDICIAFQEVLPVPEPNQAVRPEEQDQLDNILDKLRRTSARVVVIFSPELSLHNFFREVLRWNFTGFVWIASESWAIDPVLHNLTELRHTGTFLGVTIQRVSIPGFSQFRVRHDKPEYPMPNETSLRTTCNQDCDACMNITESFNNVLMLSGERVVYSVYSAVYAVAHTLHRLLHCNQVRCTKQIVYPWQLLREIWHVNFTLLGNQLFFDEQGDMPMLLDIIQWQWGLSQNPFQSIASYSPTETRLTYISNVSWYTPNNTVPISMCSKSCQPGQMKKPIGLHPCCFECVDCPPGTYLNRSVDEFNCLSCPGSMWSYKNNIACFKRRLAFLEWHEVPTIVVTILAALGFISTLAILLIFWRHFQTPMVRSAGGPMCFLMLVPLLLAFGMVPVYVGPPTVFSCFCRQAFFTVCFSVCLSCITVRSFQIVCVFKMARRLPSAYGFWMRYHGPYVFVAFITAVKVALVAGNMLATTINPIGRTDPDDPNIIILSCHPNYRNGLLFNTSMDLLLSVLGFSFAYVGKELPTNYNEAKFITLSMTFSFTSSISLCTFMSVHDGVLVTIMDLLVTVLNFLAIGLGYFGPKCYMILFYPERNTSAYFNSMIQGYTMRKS
T2 sequence (Q925D8 21-858): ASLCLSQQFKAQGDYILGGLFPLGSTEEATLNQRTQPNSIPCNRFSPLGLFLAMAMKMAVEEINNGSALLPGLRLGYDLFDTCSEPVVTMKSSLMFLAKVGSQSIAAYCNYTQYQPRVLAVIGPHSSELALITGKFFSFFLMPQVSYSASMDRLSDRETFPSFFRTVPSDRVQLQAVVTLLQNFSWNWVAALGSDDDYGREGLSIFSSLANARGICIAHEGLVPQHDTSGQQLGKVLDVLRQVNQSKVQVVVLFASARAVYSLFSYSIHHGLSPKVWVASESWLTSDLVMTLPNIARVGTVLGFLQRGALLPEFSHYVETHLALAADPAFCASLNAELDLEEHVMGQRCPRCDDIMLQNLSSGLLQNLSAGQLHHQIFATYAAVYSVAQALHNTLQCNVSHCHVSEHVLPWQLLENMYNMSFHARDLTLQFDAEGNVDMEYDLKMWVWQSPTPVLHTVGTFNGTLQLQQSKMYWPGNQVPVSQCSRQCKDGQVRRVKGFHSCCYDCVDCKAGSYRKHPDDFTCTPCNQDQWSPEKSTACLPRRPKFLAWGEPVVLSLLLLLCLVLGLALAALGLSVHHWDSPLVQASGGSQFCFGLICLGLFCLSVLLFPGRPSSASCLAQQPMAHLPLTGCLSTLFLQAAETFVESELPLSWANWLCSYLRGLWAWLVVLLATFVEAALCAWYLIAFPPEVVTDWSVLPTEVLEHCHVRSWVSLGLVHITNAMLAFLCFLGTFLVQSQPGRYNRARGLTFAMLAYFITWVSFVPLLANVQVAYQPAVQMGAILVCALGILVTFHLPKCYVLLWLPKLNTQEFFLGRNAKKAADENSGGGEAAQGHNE

[4] = T1R1 and T1R3 knockout animals, L-Asp 100 mM, AP4 30 mM
[5] = T1R3 KO mice, salt effects minimized

OC[C@H]1O[C@H](O[C@H]2[C@H](O)[C@@H](O)C(O)O[C@@H]2CO)[C@H](O)[C@@H](O)[C@@H]1O (mixture of isomers) [maltose]
T1R3 and Ggust-25 dependent responses (mouse T1R3 GPCR): dose dependent responses
taste preference relative to water (T1R knockout mice [1]; T1R2 and T1R3 knockout animals): residual responses

NC(CCP(=O)(O)O)C(=O)O (stereo not shown) [AP4]
activation of T1R1+3 (T1R1+3): activated
taste preference relative to water (T1R knockout mice [1]; [4]): complete loss in preference

C[C@H](N)C(=O)O [Ala]
behavioral attraction (T1R knockout mice [1]; T1R1 KO animals, >300 mM): small residual attraction

Nc1nc2c(ncn2[C@@H]2O[C@H](COP(=O)(O)O)[C@@H](O)[C@H]2O)c(=O)[nH]1 [GMP]
enhancement of T1R1+3 activity (T1R1+3): reliably enhanced

N[C@@H](CC(=O)O)C(=O)O [L-Asp, aspartic acid]
physiological (nerve) responses (T1R knockout mice [2]): profound corresponding deficit in physiological responses
activation of T1R1+3 (T1R1+3): activated
taste preference relative to water (T1R knockout mice [1]; [4]): complete loss in preference
behavioral attraction (T1R knockout mice [1]; [5]): dramatic loss of behavioral attraction

N[C@@H](CCC(=O)O)C(=O)[O-].[Na+] [MSG, monosodium glutamate]
integrated chorda tympani response (T1R knockout mice [2]; T1R1 and T1R3 knockouts, high concentration of salt (100 mM MSG)): residual responses are detected
taste preference relative to water (T1R knockout mice [1]; [4]): complete loss in preference

[Cl-].[Na+] [NaCl, sodium chloride]
physiological responses, effect of T1R knockouts (T1R knockout mice [2]): no significant effect
neural responses (chorda tympani) (T1R knockout mice [2]): robust neural responses
behavioral responses, effect of T1R knockouts (T1R knockout mice [1]): no significant effect

CCCc1cc(=O)[nH]c(=S)[nH]1 [PROP, 6-n-propyl-thiouracil]
neural responses (chorda tympani) (T1R knockout mice [2]): robust neural responses

N[C@@H](CO)C(=O)O [Ser]
behavioral attraction (T1R knockout mice [1]; T1R1 KO animals, >300 mM): small residual attraction

C[C@@H](O)[C@H](N)C(=O)O [Thr]
behavioral attraction (T1R knockout mice [1]; T1R1 KO animals, >300 mM): small residual attraction

COC(=O)[C@H](Cc1ccccc1)NC(=O)[C@@H](N)CC(=O)O [aspartame] (H-Asp-Phe-OMe)
behavioral attraction ([3]; 10 mM, three independent human T1R2 transgenic lines): displayed behavioral attraction
behavioral response to human sweet tastants [3]: ability to detect and respond
sweet taste to humans (humans): taste sweet
preference in rodents (rodents): no preference

O=C(O)CC(O)(CC(=O)O)C(=O)O [citric acid]
physiological responses, effect of T1R knockouts (T1R knockout mice [2]): no significant effect
neural responses (chorda tympani) (T1R knockout mice [2]): robust neural responses
behavioral responses, effect of T1R knockouts (T1R knockout mice [1]): no significant effect

O=C(CO)[C@@H](O)[C@H](O)[C@H](O)CO [fructose]
receptor independent rises in [Ca2+]i (HEK-293 cells): significant receptor independent rises in [Ca^2+]i

O=C[C@H](O)[C@@H](O)[C@@H](O)[C@H](O)CO [galactose]
receptor independent rises in [Ca2+]i (HEK-293 cells): significant receptor independent rises in [Ca^2+]i

N[C@@H](CCC(=O)O)C(=O)O [glutamate]
physiological (nerve) responses (T1R knockout mice [2]): profound corresponding deficit in physiological responses
behavioral attraction (T1R knockout mice [1]; [5]): dramatic loss of behavioral attraction

CC1(C)[C@@H](O[C@H]2O[C@H](C(=O)O)[C@@H](O)[C@H](O)[C@H]2O[C@@H]2O[C@H](C(=O)O)[C@@H](O)[C@H](O)[C@H]2O)CC[C@]2(C)[C@H]3C(=O)C=C4[C@@H]5C[C@@](C)(C(=O)O)CC[C@]5(C)CC[C@@]4(C)[C@]3(C)CC[C@@H]12 [glycyrrhizic acid]
behavioral response to human sweet tastants [3]: ability to detect and respond

O=C1NS(=O)(=O)c2ccccc21 [saccharin]
[Ca2+]i response (mouse T1R3 GPCR; 300 mM saccharin): No responses were detected
[Ca2+]i response (T1R2+3; 30 mM saccharin): respond robustly

OC[C@H]1O[C@@](CO)(O[C@H]2O[C@H](CO)[C@@H](O)[C@H](O)[C@H]2O)[C@@H](O)[C@@H]1O [sucrose]
increases in [Ca2+]i (FURA-2) (mouse T1R3 GPCR; 500 mM sucrose): increases in [Ca^2+]i
T1R3 and Ggust-25 dependent responses (mouse T1R3 GPCR): dose dependent responses
[Ca2+]i response (T1R2+3; 300 mM sucrose): respond robustly
taste preference relative to water (T1R knockout mice [1]; T1R2 and T1R3 knockout animals): residual responses

OC[C@H]1O[C@H](O[C@H]2O[C@H](CO)[C@@H](O)[C@H](O)[C@H]2O)[C@H](O)[C@@H](O)[C@@H]1O [trehalose]
receptor independent rises in [Ca2+]i (HEK-293 cells): significant receptor independent rises in [Ca^2+]i

B1: monellin (protein)
chain 1: FREIKGYEYQLYVYASDKLFRADISEDYKTRGRKLLRFNGPVPPP
chain 2: GEWEIIDIGPFTQNLGKFAVDEENKIGQYGRLTFNKVIRPCMKKTIYEEN
notes: sweet protein
behavioral response to human sweet tastants [3]: ability to detect and respond
sweet taste to humans (humans): taste sweet
preference in rodents (rodents): no preference

B2: thaumatin (protein)
chain: ATFEIVNRCSYTVWAAASKGDAALDAGGRQLNSGESWTINVEPGTNGGKIWARTDCYFDDSGSGICKTGDCGGLLRCKRFGRPPTTLAEFSLNQYGKDYIDISNIKGFNVPMDFSPTTRGCRGVRCAADIVGQCPAKLKAPGGGCNDACTVFQTSEYCCTTGKCGPTEYSRFFKRLCPDAFSYVLDKPTTVTCPGSSNYRVTFCPTA
notes: sweet protein
behavioral response to human sweet tastants [3]: ability to detect and respond
sweet taste to humans (humans): taste sweet
preference in rodents (rodents): no preference
